From US20250339419A1, “METHODS OF TREATING OCULAR INFLAMMATORY DISEASES” (priority 2021, published 2025)
“And” between values parts separate entries of the source, which are not always exact repeats. Identical values can stand only once. “Also recorded” adds a separate entry of the source. Like-named read-outs stand apart in the source and are kept apart here.

Legend:
[1] = set-up: AUC 0-∞: unit not given beside the values; settings: Observed PO (Day 1), single 500 μg dose; cited from earlier work
[2] = Phase 1 double-masked multiple-dose plasma PK study of roflumilast topical ophthalmic suspension (0.3%); format: in vivo, human; settings: for plasma profile, fluctuation between peak (Cmax) and trough (pre-dose): Day 8; for accumulation ratios (RAUC0-12): by Day 8, mean (SD)
Experimental: A pharmacokinetic (PK) study of a roflumilast topical ophthalmic suspension was conducted. Data at Day 1 (Example 15), Day 8 (Example 16), and comparative data (Example 17) is provided.
The study was a Phase 1, double-masked, multiple-dose study conducted in healthy volunteers. The multiple-dose study was conducted over a single dose level where participants were randomly assigned to receive a masked dose of roflumilast topical ophthalmic suspension eye drops (n=14) or vehicle only (n=2) as set forth in Table 7, administered as a single drop in each eye BID (twice daily, every 12 hours) for seven days, followed by a single morning dose on Day 8.
Blood samples were collected at multiple time points on Days 1, 2, 8, and 9. The following nominal blood sampling time points were used for the PK assessment of roflumilast topical ophthalmic suspension and its main active metabolite on days 1 and 8:
Roflumilast topical ophthalmic suspension and roflumilast n-oxide (metabolite) concentrations in plasma were evaluated using Phoenix™ WinNonlin® version and 8.4 (Pharsight Corporation, USA). For both analytes, the upper limit of quantification (ULOQ) was […] and the lower limit of quantification (LLOQ) was […].
Analysis Procedures: Actual collection times were used for PK parameter determinations, calculated with respect to the dose time. Time points preceding Cmax, the first measurable concentration that was BLOQ were set to zero for PK parameter determination. Where the final plasma concentration was BLOQ, the concentration at the preceding time point was deemed to be the last measurable concentration for calculation of λz. AUC parameters were determined by the linear-up, log-down trapezoidal rule. λz was determined by log-linear regression obtained on at least the 3 last quantifiable concentrations (not including Cmax); the default “best fit” method by Phoenix WinNonlin was used for the selection of slopes to determine λz. In addition, every PK profile was scrutinized visually and adjustments made to the slope selection, where necessary. The goodness of fit of the regression was evaluated using the square of the correlation coefficient (adjusted R2) which was required to be at least 0.8 for the λz l value to be considered reliable. Regression-based parameters (AUC0-inf, t1/2) were calculated if the adjusted R2 value of the regression line was greater than or equal to 0.8 and residual area <20%. The time point where the ln-linear λz calculation begins (Lower) and the actual sampling time of the last measurable concentration used to estimate the λz (λz Upper) as well as the R2-adjusted for the ln-linear regression for the calculation of the elimination rate constant were listed.

[3] = plasma, Day 8, mean (SD), topical ocular 0.3% BID 7 days + morning dose

In the case of O=C(Nc1c(Cl)cncc1Cl)c1ccc(OC(F)F)c(OCC2CC2)c1 [Roflumilast, N-(3,5-dichloropyrid-4-yl)-3-cyclopropylmethoxy-4-difluoromethoxybenzamide], the “AUC 0-∞” value [1] is listed as 37.2 and 32.86, the “Plasma Cmax” value [1] is listed as 8.3 ng/mL and the “accumulation from the AM to the PM dose (C12 vs Clast)” value ([2]; Day 1) is listed as roughly 2 fold. For the same compound, the “plasma profile, fluctuation between peak (Cmax) and trough (pre-dose)” value [2] was “very stable, showing little fluctuation”, the “PTF % (percent peak-to-trough fluctuation)” value ([2]; Day 8, mean (SD)) was 0.893 (0.446) % and the “RAUC0-12 (accumulation ratio)” value ([2]; Day 8, mean (SD)) was 2.63 (1.39). For the same compound, the “plasma concentrations, topical ocular route compared to oral (PO) administration” value ([2]; FIGS. 24-26) was “lower than those of PO-administered roflumilast; also recorded: significantly lower, producing a flatter concentration-time profile without a distinct Cmax peak”, the “AUC0-tau Geometric Mean Ratio (Day 8/Day 1) (90% CI)” value ([2]; Group 1) was 2.37 (1.90-2.94) and the “C12 (trough) Difference in LS Means (Day 8 − Day 1) (90% CI)” value ([2]; Group 1) was 0.66 (0.45-0.86). For the same compound, the “C12 (trough) Geometric Mean Ratio (Day 8/Day 1) (90% CI)” value ([2]; Group 1) was 1.93 (1.57-2.37), the “Cmax Geometric Mean Ratio (Day 8/Day 1) (90% CI)” value ([2]; Group 1) was 1.79 (1.41-2.27) and the “C12 (trough) LS Means” value ([2]; Group 1, Day 1, n 14) was −1.44. The “C12 (trough) LS Means” value ([2]; Group 1, Day 8, n 14) was −0.78, the accumulation ratios (RAUC0-12) [2] was 2.63 and the AUC ([2]; human, plasma, other: topical ophthalmic eye drops, 0.3 % suspension, single drop in each eye BID, Group 1, Day 1, read-out: AUC0-tau Geometric Mean) was 2.91 ng·h/mL. For the same compound, the concentration at 12 h ([2]; human, plasma, other: topical ophthalmic eye drops, 0.3 % suspension, single drop in each eye BID, Group 1, Day 1, read-out: C12 (trough) Geometric Mean) was 0.24 ng/mL, the Cmax ([2]; human, plasma, other: topical ophthalmic eye drops, 0.3 % suspension, single drop in each eye BID, Group 1, Day 1, read-out: Cmax Geometric Mean) was 0.47 ng/mL and the AUC ([2]; human, plasma, other: topical ophthalmic eye drops, 0.3 % suspension, single drop in each eye BID, Group 1, Day 8, read-out: AUC0-tau Geometric Mean) was 6.88 ng·h/mL. It also gave a concentration at 12 h ([2]; human, plasma, other: topical ophthalmic eye drops, 0.3 % suspension, single drop in each eye BID, Group 1, Day 8, read-out: C12 (trough) Geometric Mean) of 0.46 ng/mL, a Cmax ([2]; human, plasma, other: topical ophthalmic eye drops, 0.3 % suspension, single drop in each eye BID, Group 1, Day 8, read-out: Cmax Geometric Mean) of 0.85 ng/mL and a concentration at 12 h ([2]; human, plasma, other: topical ophthalmic eye drops, 0.3 % suspension, single drop in each eye BID, plasma, Day 1, mean, 12 hr post-first dose, read-out: C12) of 0.29 ng/mL. For the same compound, the AUC0-t ([2]; human, plasma, other: topical ophthalmic eye drops, 0.3 % suspension, single drop in each eye BID, plasma, Day 1, mean, to 12 hr post-first dose, read-out: AUC0-t) was 3.6 ng·h/mL, the concentration at 24 h ([2]; human, plasma, other: topical ophthalmic eye drops, 0.3 % suspension, single drop in each eye BID, plasma, Day 1, mean, to 24 hr post-first dose, read-out: Clast) was 0.51 ng/mL and the Cmax ([2]; human, plasma, other: topical ophthalmic eye drops, 0.3 % suspension, single drop in each eye BID, plasma, Day 1, mean, 0.3% suspension 1 drop each eye BID, read-out: Cmax) was 0.59 ng/mL. The Tmax ([2]; human, plasma, other: topical ophthalmic eye drops, 0.3 % suspension, single drop in each eye BID, plasma, Day 1, median, read-out: Tmax) was 2 h, the AUC0-t ([2]; human, plasma, other: topical ophthalmic eye drops, 0.3 % suspension, single drop in each eye BID, plasma, Day 8, mean (SD), read-out: AUC0-t) was 12.8 ng·h/mL and the AUC ([2]; human, plasma, other: topical ophthalmic eye drops, 0.3 % suspension, single drop in each eye BID, plasma, Day 8, mean (SD), read-out: AUC0-tau) was 7.6 ng·h/mL. For the same compound, the AUC ([2]; human, plasma, other: topical ophthalmic eye drops, 0.3 % suspension, single drop in each eye BID, plasma, Day 8, mean (SD), read-out: AUC24) was 12.8 ng·h/mL, the concentration at 12 h ([2]; human, plasma, other: topical ophthalmic eye drops, 0.3 % suspension, single drop in each eye BID, plasma, Day 8, mean (SD), read-out: C12 trough) was 0.5 ng/mL and the Tmax ([2]; human, plasma, other: topical ophthalmic eye drops, 0.3 % suspension, single drop in each eye BID, plasma, Day 8, median, read-out: Tmax) was 1 h. For the same compound, the Cmax ([2]; human, plasma, topical or ocular, 0.3 % suspension, single drop in each eye BID, plasma, Day 8, mean (SD), topical ocular 0.3% BID 7 days + morning dose, read-out: Cmax) was 0.94 ng/mL, the Cavg ([2]; plasma, Day 8, mean (SD)) was 0.63 (0.30) ng/mL and the Cmax [2, 3] was 0.94 (0.46) ng/mL.

For O=C(Nc1c(Cl)c[n+]([O-])cc1Cl)c1ccc(OC(F)F)c(OCC2CC2)c1 [Roflumilast N-oxide, 3-cyclopropylmethoxy-4-difluoromethoxy-N-(3,5-dichloropyrid-4-yl 1-oxide)benzamide], the mean plasma profile ([2]; Day 1, FIGS. 14-17) was “increased over the 12 hours post-first dose”, the “plasma levels relative to roflumilast” value ([2]; Day 1, FIGS. 16-17) was “consistently higher than roflumilast after 2 hours” and the “plasma profile, fluctuation between peak (Cmax) and trough (pre-dose)” value [2] was “very stable, showing little fluctuation”. For the same compound, the “mean peak plasma profile relative to parent” value ([2]; Day 8, FIGS. 22-23) was “consistently higher than that of the parent”, the “PTF % (percent peak-to-trough fluctuation)” value ([2]; Day 8, mean (SD)) was 0.287 (0.223) % and the “RAUC0-12 (accumulation ratio)” value ([2]; Day 8, mean (SD)) was 9.25 (2.92). The accumulation ratios (RAUC0-12) [2] was 9.25, the C12 ([2]; plasma, Day 1, mean, 12 hr post-first dose) was 1.37 ng/mL and the AUC0-t ([2]; plasma, Day 1, mean, to 12 hr post-first dose) was 9.38 ng·h/mL. The Clast ([2]; plasma, Day 1, mean, to 24 hr post-first dose) was 3.49 ng/mL, the Cmax ([2]; plasma, Day 1, mean, 0.3% suspension 1 drop each eye BID) was 1.38 ng/mL and the Tmax ([2]; plasma, Day 1, median) was 11.83 h. The AUC0-t ([2]; plasma, Day 8, mean (SD)) was 156 (79.3) h*ng/mL, the AUC0-tau ([2]; plasma, Day 8, mean (SD)) was 78.4 (39.4) h*ng/mL and the AUC24 ([2]; plasma, Day 8, mean (SD)) was 149 (77.4)** h*ng/mL. The C12 trough ([2]; plasma, Day 8, mean (SD)) was 6.33 (3.35) ng/mL, the Cavg ([2]; plasma, Day 8, mean (SD)) was 6.53 (3.29) ng/mL and the Cmax [2, 3] was 7.93 (3.88) ng/mL. For the same compound, the Tmax ([2]; plasma, Day 8, median) was 1.00 h.
